Source: patent US20180340933A1, “Soybean Allergy Related Epitopes” (Fraunhofer-Gesellschaft zur Foerderung der angewandten …, priority 2015, published 2018)
Ends that are not written are not given here.

Experiments:
Type in all cases: binding, human
[1] = test system: antibodies of serum from patients with soy allergy; assay: Phage display affinity selection and panning (ENTE1 library), sequencing and statistical motif analysis; details: for all three epitopes (SEQ ID NO.: 17, 20, 15) recognized by the same patient: 23 patients; for epitope recognized by patients / two epitopes (SEQ ID NO.: 15, SEQ ID NO.: 17) recognized by the same patients: number of patients out of 23; for sequence count (lcount): 2013_S1_2. Panning
Description: Strong immunodominant allergic proteins, such as P34 thiol protease (Gly m Bd 30K), are known to induce allergic reactions, whereas other soybean proteins, although no potent inducers of a primary allergic response, can nevertheless trigger effector responses due to their binding by IgE. […] For example, only 65% of soybean sensitive individuals carry IgE recognizing P34 thiol protease (Gly m Bd 30K), which is considered one of the strongest allergenic soybean proteins (Yang et al., 2011). […] To identify many specific epitopes, i.e. amino acid sequences of soybean proteins, recognized by antibodies of sensitive patients, with high resolution down to the individual amino acids involved, the inventors applied a novel approach using a specific random phage library (EP 14 166 662.8). This phage library is generated using triplet codons with specific limitations, such that most amino acids are regularly represented throughout the entire library. In consequence, the library covers an unusually broad range of sequence variability and allows particular reliable statistical analysis. The library was contacted with serum samples derived from a biobank of 50 different soybean protein sensitive patients. After phage selection, the amino acid sequences that were bound by the patients' antibodies (anti-[allergen antibody] amino acid sequence) were identified by next generation sequencing and the results statistically analyzed. To confirm the allergy relevance of the identified amino acid sequences, their reactivity with patient IgE was determined by peptide arrays. Thereby, the inventors identified more than 300 potentially allergenic epitopes from different soybean proteins. The identified epitopes could be assigned to a total of 23 soybean proteins (Table 1) including P34 thiol protease (Gly m Bd 30K), β-conglycinin (Gly m Bd60 K) and Gly m Bd 28K, which are considered major soybean allergenic proteins (Yang et al., 2011).
24 μg of serum protein from patients with soy allergy were diluted in 2.5 ml PBS and coated in protein binding Immuno™ Tubes with Maxisorp™ for 1 h at 4° C. at 18 rpm (negative control: PBS). The coated tubes were washed with 2.5 ml blocking buffer (5% NFDM/1×PBS) and incubated with 4 ml blocking buffer at 4° C. for at least 15 min (18 rpm). The tubes were washed three times with 4 ml wash buffer I (1×PBS). 1 ml blocking buffer containing 30 μg of non-allergic serum protein and the phage library ENTE1 was added to each tube. The tubes were incubated for 2 h at 4° C. (18 rpm). After incubation, the tubes were washed 5 times with 1 ml 0.1% Tween/1×PBS and subsequently with 0.5% Tween/1×PBS. Then the bound phages were eluted using 1 ml of elution buffer (0.1 M Glycin.HCl pH 2.2). The tubes were incubated 5 min and vortexed several times. The eluate was immediately neutralized with 200 μl neutralization buffer (1 M Tris.HCl pH 8.2). In the first selection round 4×10^11 cfu of the ENTE1-library were used per tube. In the second selection round 1000×the recovered phages were inserted.
TG1 (λ) cells were grown in 250 ml baffled culture flasks in 10 ml dYT at 37° C. until they reached an OD600 about 0.5-1.0. The cells were incubated with eluted phage for 20 min at 37° C. with 100 rpm agitation. After incubation, the solution was immediately poured on dYT-agar plates (25×25 cm) containing 200 μg/ml ampicillin and incubated overnight at 30° C.
After overnight incubation the colonies were resuspended in 25 ml dYT containing 1×10^10 cfu/ml M13K07. The cells were diluted in 25 ml dYT containing 500 μg/ml ampicillin and 1×10^10 cfu/ml M13K07 using a 250 ml baffled culture flasks to obtain a cell density of OD600 0.5. The cells were incubated for 1 h at 37° C. with 180 rpm agitation. Afterwards the culture was growing about 13 h at 30° C. with 180 rpm agitation. […]

[2] = test system: IgG of sera from soybean-sensitive patients; assay: Peptide microarray, immune status of soybean-sensitive patients: IgG detection; details: sera from 50 patients, diluted 1:50; positive = signal to noise ratio above 5
Description: (§1) Epitope candidates were supplied externally (Neundorf, University of Cologne, Germany). The peptide is synthesised with the following structure: Ac-N-epitope sequence-C-Ebes-Lys(γ-N3)-amide (Ebes=amino-3,6-dioxaoctyl-succinamic acid). The peptide sequences were based on either the naïve soybean protein sequence (Pr) or the mimotope from phage display experiment (Ph). The peptide length varied between eight and nineteen amino acids. Glass slides were coated with Dibenzocyclooctyl (DBCO). The peptides were immobilized using different concentrations (81 ng/μl, 27 ng/μl or 9 ng/μl) on glymo-covered slides using click chemistry.
(§2) Each slide was blocked for 30 min with PBS containing 0.1% (v/v) Tween-20 and 1% (w/v) BSA, pH 7.4. For the incubation with sera cover slides (HybriWell™. 60 mm×21 mm×0.15) were used. Sera from 50 patients with differently intense prick reaction to soy milk were tested. The slides were incubated with 100 μl sera from the soybean-sensitive patients diluted 1:50 in blocking buffer overnight at 4° C. After two washes in washing buffer (PBS containing 0.1% (v/v) Tween-20, pH 7.4) the slides were shaken at 200 rpm for 60 min in a mouse-anti human IgE antibody (Abcam, Cambridge, UK, ab99834) diluted to 100 ng/ml or goat-anti human IgG antibody Cy5 (Abcam, Cambridge, UK, ab97172) diluted to 100 ng/ml in blocking buffer. After two further washes, bound IgG and IgE were detected by incubating the array for 60 min at room temperature with the secondary Cy5-labeled goat anti-mouse antibody (life technologies, Thermo Fisher Scientific, Waltham, Mass., USA, A10524) diluted to 400 ng/ml in blocking buffer. Fluorescence signals on the array were detected in a microarray reader (Geneprix 4200A) at 635 nm and the data were evaluated using GenePix® Pro 6 software to determine the signal intensity of each peptide spot. The software calculated the signal to noise ratio (SNR) for every spot. An overall threshold of 5 signal to noise ratio units was set, and signals above this threshold were assumed to indicate positive recognition by the patient sera.

[3] = test system: IgE of sera from soybean-sensitive patients; assay: Peptide microarray, immune status of soybean-sensitive patients: IgE detection; details: sera from 50 patients, diluted 1:50; positive = signal to noise ratio above 5
Description: as §1, §2

[4] = test system: antibodies (IgE and IgG) in sera of soybean-protein sensitive patients; assay: Peptide microarray, recognition of peptides by patient sera (IgE and IgG, total); details: sera from 50 patients
Description: as §1, §2

Substance	Number of IgG-positive sera [2]	Number of IgE-positive sera [3]	total (IgE- and IgG-positive sera) [4]	other results
QHQQ	–	–	–	motive count, first panning ([1]; Serum 1, 1. Panning round): 407 counts; motive count, second panning ([1]; Serum 1, 2. Panning round): 825 counts
HAANVVGNKESQREAR [Peptide P18]	1	8	9	–
HIQEEECEGDL (peptide P8) [50]	2	2	4	–
GFNLCNRDRPAP (Ac-GFNLCNRDRPAP; not fully specified (C-terminus); also: Ebes linker, place not given here, Lys(azide), place not given here) [Peptide P1, 100]	4	4	8	–
EIPRPR (glycine max) [SEQ ID NO.: 20]	–	–	–	all three epitopes (SEQ ID NO.: 17, 20, 15) recognized by the same patient [1]: one; epitope recognized by patients [1]: 3/23
EVSFASQVLIY (peptide P3) [94]	3	6	9	–
QDQEEDEEDE (peptide P20) [104]	2	5	7	–
SDKYQEEFQPR (peptide P10) [127]	1	10	12	–
KVLFSREEGQQQ (peptide P6) [35]	9	21	31	–
RRFYLAGNQEQEFL (peptide P15) [126]	2	3	6	–
GEIMCWREVVTQHQQHA (glycine max) [SEQ ID NO.: 707]	–	–	–	sequence count (lcount) [1]: 122
DEGEQPRPFPFPRPR (peptide P7) [54]	2	2	4	–
SHHDQPRQHA (peptide P4) [28]	6	12	18	–
EFLKYQQEQG (peptide P12) [127]	12	12	24	–
NSERD (glycine max) [SEQ ID NO.: 15]	–	–	–	all three epitopes (SEQ ID NO.: 17, 20, 15) recognized by the same patient [1]: one; epitope recognized by patients [1]: 7/23; two epitopes (SEQ ID NO.: 15, SEQ ID NO.: 17) recognized by the same patients [1]: 5/23
VEEEEECEEGQI (peptide P9) [50]	17	32	50	–
TEKYQQNSSG (peptide P11) [127]	3	2	5	–
HVVEQEFLD (peptide P14) [126]	5	23	28	–
SQSHGFHGLCNRDHNCA (peptide P2) [100]	1	7	8	–
GYNPCRQEEDEELHHKC (peptide P19) [104]	6	9	15	–
GIEPCSKYSQHQQHVQN (glycine max) [SEQ ID NO.: 706]	–	–	–	sequence count (lcount) [1]: 250
GVYNSQVDDEEEQNQRD (peptide P13) [159]	1	7	8	–
RNQACHA (glycine max) [SEQ ID NO.: 17]	–	–	–	all three epitopes (SEQ ID NO.: 17, 20, 15) recognized by the same patient [1]: one; epitope recognized by patients [1]: 15/23; two epitopes (SEQ ID NO.: 15, SEQ ID NO.: 17) recognized by the same patients [1]: 5/23
ISQQDRHRI (peptide P16) [154]	13	28	42	–
FDQKESQHFS (peptide P17) [345]	1	0	2	–
HITFSREEGSI (peptide P5) [35]	2	12	14	–
